Measured values published in ChEMBL document CHEMBL4507268 (2021).

Tests used:
Details in all cases: Compound concentration 1.0 uM
[1] = target: T1, Aurora kinase A (Homo sapiens) (UniProt O14965)
T1 sequence (whole entry): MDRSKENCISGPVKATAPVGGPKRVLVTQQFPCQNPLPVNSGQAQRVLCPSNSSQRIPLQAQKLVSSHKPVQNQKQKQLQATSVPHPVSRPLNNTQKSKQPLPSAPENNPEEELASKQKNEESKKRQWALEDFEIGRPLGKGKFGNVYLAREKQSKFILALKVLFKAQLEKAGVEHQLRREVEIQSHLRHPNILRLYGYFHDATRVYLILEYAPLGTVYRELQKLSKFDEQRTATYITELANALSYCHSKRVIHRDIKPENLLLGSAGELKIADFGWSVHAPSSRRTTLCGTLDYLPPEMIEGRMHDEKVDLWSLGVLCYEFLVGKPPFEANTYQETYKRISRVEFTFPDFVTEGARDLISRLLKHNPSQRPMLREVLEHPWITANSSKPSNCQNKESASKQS

[2] = target: T2, Discoidin domain-containing receptor 2 (Homo sapiens) (UniProt Q16832)
T2 sequence (whole entry): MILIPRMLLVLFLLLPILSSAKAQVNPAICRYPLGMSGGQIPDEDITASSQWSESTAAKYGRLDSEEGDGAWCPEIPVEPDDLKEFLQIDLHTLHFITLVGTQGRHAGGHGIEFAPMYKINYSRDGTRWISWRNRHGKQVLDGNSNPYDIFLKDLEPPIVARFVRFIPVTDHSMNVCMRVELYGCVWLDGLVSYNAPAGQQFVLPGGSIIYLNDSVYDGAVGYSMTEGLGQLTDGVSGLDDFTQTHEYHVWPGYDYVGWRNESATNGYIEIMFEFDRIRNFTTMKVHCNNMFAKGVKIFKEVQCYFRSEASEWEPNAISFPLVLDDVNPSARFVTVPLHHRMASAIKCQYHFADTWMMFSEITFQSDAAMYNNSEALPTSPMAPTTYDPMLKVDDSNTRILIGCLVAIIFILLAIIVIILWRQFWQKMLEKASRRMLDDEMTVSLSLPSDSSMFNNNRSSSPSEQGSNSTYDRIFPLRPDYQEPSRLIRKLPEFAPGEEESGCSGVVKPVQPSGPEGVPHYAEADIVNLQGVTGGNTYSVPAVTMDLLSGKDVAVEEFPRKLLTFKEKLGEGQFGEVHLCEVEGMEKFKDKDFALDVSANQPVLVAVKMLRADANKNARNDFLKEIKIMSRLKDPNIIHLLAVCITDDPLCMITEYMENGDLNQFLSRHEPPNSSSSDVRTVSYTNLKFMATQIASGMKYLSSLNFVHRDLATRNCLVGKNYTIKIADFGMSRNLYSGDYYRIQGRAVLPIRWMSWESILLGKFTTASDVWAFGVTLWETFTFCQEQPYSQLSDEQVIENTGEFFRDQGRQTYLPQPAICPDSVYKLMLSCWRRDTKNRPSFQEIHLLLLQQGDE

[3] = target: T3, Ephrin type-A receptor 1 (Homo sapiens) (UniProt P21709)
T3 sequence (whole entry): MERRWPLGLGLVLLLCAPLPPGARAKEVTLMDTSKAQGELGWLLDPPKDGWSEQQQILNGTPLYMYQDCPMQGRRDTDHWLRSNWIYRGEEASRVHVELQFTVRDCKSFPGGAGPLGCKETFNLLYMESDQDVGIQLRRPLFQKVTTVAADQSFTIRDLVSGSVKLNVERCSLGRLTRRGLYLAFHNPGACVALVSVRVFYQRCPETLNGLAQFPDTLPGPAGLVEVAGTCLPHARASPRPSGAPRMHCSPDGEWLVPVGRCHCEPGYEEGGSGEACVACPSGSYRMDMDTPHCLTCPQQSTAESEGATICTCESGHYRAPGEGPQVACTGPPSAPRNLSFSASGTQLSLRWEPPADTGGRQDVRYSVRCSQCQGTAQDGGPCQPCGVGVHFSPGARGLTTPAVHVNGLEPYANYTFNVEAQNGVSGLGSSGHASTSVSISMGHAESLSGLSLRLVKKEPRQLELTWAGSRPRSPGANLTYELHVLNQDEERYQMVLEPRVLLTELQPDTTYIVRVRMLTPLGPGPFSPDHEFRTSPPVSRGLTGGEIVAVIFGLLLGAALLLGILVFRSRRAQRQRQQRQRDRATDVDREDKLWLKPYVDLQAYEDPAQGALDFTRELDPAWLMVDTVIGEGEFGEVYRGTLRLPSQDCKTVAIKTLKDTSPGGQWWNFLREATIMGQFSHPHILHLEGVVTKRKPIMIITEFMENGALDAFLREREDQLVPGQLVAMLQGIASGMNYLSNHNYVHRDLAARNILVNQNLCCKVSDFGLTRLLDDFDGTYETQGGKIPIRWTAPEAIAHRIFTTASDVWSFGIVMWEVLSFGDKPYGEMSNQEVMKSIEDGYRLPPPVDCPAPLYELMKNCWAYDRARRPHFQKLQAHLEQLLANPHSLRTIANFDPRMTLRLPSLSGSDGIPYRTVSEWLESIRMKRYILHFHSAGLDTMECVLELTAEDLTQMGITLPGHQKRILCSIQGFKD

[4] = target: Homeodomain-interacting protein kinase 3 (Homo sapiens) (UniProt Q9H422)
Sequence of Homeodomain-interacting protein kinase 3 (Homo sapiens) (Q9H422 whole entry, looked up): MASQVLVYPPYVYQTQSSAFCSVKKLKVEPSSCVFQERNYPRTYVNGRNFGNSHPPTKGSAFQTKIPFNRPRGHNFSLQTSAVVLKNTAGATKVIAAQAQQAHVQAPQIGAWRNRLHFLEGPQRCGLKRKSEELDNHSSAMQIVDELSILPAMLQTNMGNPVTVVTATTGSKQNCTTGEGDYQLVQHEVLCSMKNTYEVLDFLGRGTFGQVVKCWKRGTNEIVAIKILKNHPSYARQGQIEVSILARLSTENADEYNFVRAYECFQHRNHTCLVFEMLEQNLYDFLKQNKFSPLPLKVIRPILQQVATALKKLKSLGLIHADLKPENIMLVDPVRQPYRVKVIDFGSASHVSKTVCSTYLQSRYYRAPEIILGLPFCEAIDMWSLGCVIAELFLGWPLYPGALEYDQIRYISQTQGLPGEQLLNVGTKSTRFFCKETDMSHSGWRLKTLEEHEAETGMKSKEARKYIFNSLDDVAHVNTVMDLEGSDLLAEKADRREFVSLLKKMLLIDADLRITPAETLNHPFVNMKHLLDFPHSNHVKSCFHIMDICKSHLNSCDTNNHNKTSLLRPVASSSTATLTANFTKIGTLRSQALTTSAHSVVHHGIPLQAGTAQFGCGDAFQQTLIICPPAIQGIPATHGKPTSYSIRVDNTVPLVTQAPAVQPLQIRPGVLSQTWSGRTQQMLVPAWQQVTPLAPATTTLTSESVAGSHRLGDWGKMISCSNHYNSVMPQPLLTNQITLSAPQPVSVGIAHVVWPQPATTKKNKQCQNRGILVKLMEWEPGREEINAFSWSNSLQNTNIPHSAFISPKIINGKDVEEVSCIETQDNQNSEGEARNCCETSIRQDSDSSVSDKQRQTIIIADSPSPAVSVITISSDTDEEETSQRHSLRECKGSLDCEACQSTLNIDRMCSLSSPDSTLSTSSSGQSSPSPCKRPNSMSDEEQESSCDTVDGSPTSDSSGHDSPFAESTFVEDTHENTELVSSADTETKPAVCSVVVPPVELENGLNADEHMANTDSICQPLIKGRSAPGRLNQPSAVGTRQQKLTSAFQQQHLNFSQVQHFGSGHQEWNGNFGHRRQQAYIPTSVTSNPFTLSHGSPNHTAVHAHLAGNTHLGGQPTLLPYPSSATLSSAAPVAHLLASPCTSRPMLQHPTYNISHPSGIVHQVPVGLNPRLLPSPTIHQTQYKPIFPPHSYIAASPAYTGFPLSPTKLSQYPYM

[5] = target: Leukocyte tyrosine kinase receptor (Homo sapiens) (UniProt P29376)
Sequence of Leukocyte tyrosine kinase receptor (Homo sapiens) (P29376 whole entry): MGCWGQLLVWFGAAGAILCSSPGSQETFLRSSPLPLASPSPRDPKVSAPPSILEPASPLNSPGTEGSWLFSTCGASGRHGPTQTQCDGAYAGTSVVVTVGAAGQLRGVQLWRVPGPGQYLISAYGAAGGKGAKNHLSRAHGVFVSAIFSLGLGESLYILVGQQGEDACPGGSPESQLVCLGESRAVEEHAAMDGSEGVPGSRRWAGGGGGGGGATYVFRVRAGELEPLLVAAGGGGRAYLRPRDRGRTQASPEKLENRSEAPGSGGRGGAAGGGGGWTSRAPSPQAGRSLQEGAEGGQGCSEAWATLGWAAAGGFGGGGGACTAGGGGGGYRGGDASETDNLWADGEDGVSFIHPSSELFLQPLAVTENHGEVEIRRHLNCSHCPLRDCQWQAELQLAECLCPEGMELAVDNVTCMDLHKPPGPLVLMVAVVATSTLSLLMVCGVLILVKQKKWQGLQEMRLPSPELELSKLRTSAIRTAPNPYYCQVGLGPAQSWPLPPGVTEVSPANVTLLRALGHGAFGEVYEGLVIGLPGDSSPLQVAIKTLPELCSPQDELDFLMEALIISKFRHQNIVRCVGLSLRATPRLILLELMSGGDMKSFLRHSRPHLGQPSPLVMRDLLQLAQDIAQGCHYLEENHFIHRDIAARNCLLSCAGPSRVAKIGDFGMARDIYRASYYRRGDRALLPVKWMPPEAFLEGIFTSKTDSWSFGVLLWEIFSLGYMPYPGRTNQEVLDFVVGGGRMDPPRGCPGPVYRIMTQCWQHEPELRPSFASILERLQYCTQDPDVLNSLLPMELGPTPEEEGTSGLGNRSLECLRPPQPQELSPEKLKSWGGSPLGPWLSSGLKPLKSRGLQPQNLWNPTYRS

[6] = target: Mitogen-activated protein kinase kinase kinase 10 (Homo sapiens) (UniProt Q02779)
Sequence of Mitogen-activated protein kinase kinase kinase 10 (Homo sapiens) (Q02779 whole entry, looked up): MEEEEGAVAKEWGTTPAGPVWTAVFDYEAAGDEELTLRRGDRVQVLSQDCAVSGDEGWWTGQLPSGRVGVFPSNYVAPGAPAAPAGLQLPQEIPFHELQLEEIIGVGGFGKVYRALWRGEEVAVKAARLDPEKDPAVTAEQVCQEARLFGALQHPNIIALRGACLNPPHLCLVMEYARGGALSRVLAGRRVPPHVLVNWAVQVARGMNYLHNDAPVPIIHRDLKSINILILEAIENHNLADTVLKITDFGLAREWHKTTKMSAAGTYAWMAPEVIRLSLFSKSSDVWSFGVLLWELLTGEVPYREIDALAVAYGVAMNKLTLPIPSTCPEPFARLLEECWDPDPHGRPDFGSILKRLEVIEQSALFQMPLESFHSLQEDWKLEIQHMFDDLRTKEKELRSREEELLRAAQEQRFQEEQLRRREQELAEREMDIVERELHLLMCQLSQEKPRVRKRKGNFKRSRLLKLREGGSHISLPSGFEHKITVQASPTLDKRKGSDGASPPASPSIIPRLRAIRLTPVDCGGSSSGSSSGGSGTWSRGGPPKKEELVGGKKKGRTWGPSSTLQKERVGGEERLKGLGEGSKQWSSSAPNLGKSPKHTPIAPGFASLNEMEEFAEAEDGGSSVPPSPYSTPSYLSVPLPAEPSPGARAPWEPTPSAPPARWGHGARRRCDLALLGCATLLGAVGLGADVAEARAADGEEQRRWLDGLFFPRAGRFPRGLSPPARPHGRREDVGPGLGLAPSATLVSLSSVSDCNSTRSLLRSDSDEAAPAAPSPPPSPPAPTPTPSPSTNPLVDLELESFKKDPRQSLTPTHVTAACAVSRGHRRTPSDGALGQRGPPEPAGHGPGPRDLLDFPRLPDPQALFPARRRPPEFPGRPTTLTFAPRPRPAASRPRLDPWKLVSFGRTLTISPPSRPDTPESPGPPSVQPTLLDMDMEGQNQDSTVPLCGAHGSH

[7] = target: RAC-alpha serine/threonine-protein kinase (Homo sapiens) (UniProt P31749)
Sequence of RAC-alpha serine/threonine-protein kinase (Homo sapiens) (P31749 whole entry): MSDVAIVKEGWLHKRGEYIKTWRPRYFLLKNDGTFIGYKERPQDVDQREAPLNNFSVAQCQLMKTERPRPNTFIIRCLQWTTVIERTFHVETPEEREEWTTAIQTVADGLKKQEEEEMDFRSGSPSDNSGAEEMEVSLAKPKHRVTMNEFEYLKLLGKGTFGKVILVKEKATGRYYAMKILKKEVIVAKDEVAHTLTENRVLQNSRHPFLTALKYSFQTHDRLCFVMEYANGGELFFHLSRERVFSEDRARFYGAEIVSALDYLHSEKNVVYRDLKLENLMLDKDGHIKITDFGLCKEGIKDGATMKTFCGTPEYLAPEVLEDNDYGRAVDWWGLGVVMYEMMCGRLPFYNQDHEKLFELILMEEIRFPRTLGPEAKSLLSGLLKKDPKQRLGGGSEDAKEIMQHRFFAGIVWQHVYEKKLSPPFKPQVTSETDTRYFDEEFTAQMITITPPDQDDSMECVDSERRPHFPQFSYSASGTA

[8] = target: Serine/threonine-protein kinase 16 (Homo sapiens) (UniProt O75716)
Sequence of Serine/threonine-protein kinase 16 (Homo sapiens) (O75716 whole entry): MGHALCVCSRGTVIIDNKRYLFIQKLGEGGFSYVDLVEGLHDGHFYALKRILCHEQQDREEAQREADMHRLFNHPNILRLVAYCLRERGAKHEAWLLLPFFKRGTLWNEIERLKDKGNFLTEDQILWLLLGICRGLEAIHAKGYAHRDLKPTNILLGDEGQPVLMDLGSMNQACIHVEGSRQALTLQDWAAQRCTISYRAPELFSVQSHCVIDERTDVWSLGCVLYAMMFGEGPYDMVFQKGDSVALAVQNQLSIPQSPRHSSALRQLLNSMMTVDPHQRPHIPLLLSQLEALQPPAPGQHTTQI

[9] = target: T4, Serine/threonine-protein kinase ULK3 (Homo sapiens) (UniProt Q6PHR2)
T4 sequence (whole entry): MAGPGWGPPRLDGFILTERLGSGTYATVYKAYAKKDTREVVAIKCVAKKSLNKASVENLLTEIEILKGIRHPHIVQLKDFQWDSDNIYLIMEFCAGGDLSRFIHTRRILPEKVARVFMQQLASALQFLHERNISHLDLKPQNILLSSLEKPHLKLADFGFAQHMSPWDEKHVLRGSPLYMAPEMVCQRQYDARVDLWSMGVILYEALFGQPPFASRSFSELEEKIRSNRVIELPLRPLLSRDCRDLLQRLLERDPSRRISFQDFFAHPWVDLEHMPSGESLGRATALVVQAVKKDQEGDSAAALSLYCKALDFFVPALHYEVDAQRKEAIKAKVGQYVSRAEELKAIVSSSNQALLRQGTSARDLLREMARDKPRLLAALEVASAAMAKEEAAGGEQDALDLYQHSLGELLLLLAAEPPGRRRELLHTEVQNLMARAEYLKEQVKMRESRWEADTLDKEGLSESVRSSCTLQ

Measured: % residual kinase activity

CN1CCN(c2cnc3c(C4CCN(C(=O)c5ccc(OC(F)(F)F)cc5N)CC4)ncnc3c2)CC1 [BAY-885]
inactive: [1] 109% | [2] 104% | [3] 106% | [4] 108% | [5] 103% | [6] 107% | [7] 113% | [8] 99% | [9] 98%
